Patent EP0045157A1, “Macrolide antibiotics, their preparation and veterinary compositions containing them” (ELI LILLY AND COMPANY, priority 1980, dated 1982)

Key:
[1] = Electrometric titration (pKa); assay type: physicochemical; details: electrometric titration in 66% aqueous dimethylformamide; read-out: pKa value of titratable group
Description: Electrometric titration of DOMM in 66% aqueous dimethylformamide indicates the presence of a titratable group with a pKa value of about 7.14.

[2] = Solubility; assay type: physicochemical; details: water and most polar organic solvents (acetone, methanol, ethanol, chloroform, dimethylformamide, dimethyl sulfoxide)
Description: DOMM acid addition salts are more soluble in water than is DOMM base.

Question: Which pKa [1] does the source give for `CCC1OC(=O)CC(O)C(C)C(OC2OC(C)C(OC3CC(C)(O)C(O)C(C)O3)C(N(C)C)C2O)C(CC=O)CC(C)C(=O)C=CC(C)=CC1COC1OC(C)C(O)C(O)C1O` (centres unmarked) [DOMM, 2"'-O-demethylmacrocin] here?
Answer: ~7.14

Question: And the solubility [2]?
Answer: soluble in water and in most polar organic solvents
